Results as given in PubChem BioAssay AID1919015 (Molecular Pharmacology Branch, DTP, NCI, 2023).
Where “and” joins values, the source holds several entries; their conditions need not be identical. Equal entries are not always repeated.

System: OVCAR-5 complex spheroids with HUVEC/MSC, viability, % test/control
Assay: Anticancer human tumor OVCAR-5 cell line growth inhibition [AhR];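 note: spheroids exposed to compounds for 7 days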;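 for viability, T/C: 100% = DMSO vehicle control wells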
Conditions: for viability, T/C: stronger effect = lower value
How it was run: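 Spheroids combined tumor cells with HUVEC endothelial cells and human MSCs as stroma. AhR antagonists were paired with standard or investigational drugs, each dosed in half-log steps down from near clinical Cmax, or from 10 microM where Cmax was unknown.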

[1] = curve of first compound, second compound 0.1 µM
[2] = curve of first compound, second compound 0.316 µM
[3] = curve of first compound, second compound 1 µM
[4] = curve of first compound, second compound 3.16 µM
[5] = curve of first compound, second compound 10 µM
[6] = second compound 0.1 µM, first compound 0.0316 µM
[7] = second compound 0.1 µM, first compound 0.1 µM
[8] = second compound 0.316 µM, first compound 0.0316 µM
[9] = second compound 0.316 µM, first compound 0.1 µM
[10] = second compound 1 µM, first compound 0.0316 µM
[11] = second compound 1 µM, first compound 0.1 µM
[12] = second compound 3.16 µM, first compound 0.0316 µM
[13] = second compound 3.16 µM, first compound 0.1 µM
[14] = second compound 10 µM, first compound 0.0316 µM
[15] = second compound 10 µM, first compound 0.1 µM
[16] = second compound 0.1 µM, first compound 0.000949 µM
[17] = second compound 0.1 µM, first compound 0.003 µM
[18] = second compound 0.1 µM, first compound 0.00949 µM
[19] = second compound 0.1 µM, first compound 0.03 µM
[20] = second compound 0.1 µM, first compound 0.0949 µM
[21] = second compound 0.1 µM, first compound 0.3 µM
[22] = second compound 0.316 µM, first compound 0.000949 µM
[23] = second compound 0.316 µM, first compound 0.003 µM
[24] = second compound 0.316 µM, first compound 0.00949 µM
[25] = second compound 0.316 µM, first compound 0.03 µM
[26] = second compound 0.316 µM, first compound 0.0949 µM
[27] = second compound 0.316 µM, first compound 0.3 µM
[28] = second compound 1 µM, first compound 0.000949 µM
[29] = second compound 1 µM, first compound 0.003 µM
[30] = second compound 1 µM, first compound 0.00949 µM
[31] = second compound 1 µM, first compound 0.03 µM
[32] = second compound 1 µM, first compound 0.0949 µM
[33] = second compound 1 µM, first compound 0.3 µM
[34] = second compound 3.16 µM, first compound 0.000949 µM
[35] = second compound 3.16 µM, first compound 0.003 µM
[36] = second compound 3.16 µM, first compound 0.00949 µM
[37] = second compound 3.16 µM, first compound 0.03 µM
[38] = second compound 3.16 µM, first compound 0.0949 µM
[39] = second compound 3.16 µM, first compound 0.3 µM
[40] = second compound 10 µM, first compound 0.000949 µM
[41] = second compound 10 µM, first compound 0.003 µM
[42] = second compound 10 µM, first compound 0.00949 µM
[43] = second compound 10 µM, first compound 0.03 µM
[44] = second compound 10 µM, first compound 0.0949 µM
[45] = second compound 10 µM, first compound 0.3 µM

CC[C@@]1(O)C(=O)OCc2c1cc1n(c2=O)Cc2cc3c(CN(C)C)c(O)ccc3nc2-1 + CC(CO)NC(=O)c1cc(-c2ccc(Cl)cc2)nn(-c2cnn(C)c2)c1=O
IC50 [1]: > 100 nM | IC50 [2]: > 100 nM | IC50 [3]: > 100 nM | IC50 [4]: > 100 nM | IC50 [5]: > 100 nM | viability, T/C (second compound 0.1 µM, first compound 0.000316 µM): 112% | viability, T/C (second compound 0.1 µM, first compound 0.001 µM): 105% | viability, T/C (second compound 0.1 µM, first compound 0.00316 µM): 105% | viability, T/C (second compound 0.1 µM, first compound 0.01 µM): 94.9% | viability, T/C [6]: 61.9% | viability, T/C [7]: 50.9% | viability, T/C (second compound 0.316 µM, first compound 0.000316 µM): 111% | viability, T/C (second compound 0.316 µM, first compound 0.001 µM): 110% | viability, T/C (second compound 0.316 µM, first compound 0.00316 µM): 106% | viability, T/C (second compound 0.316 µM, first compound 0.01 µM): 99.5% | viability, T/C [8]: 59% | viability, T/C [9]: 54.2% | viability, T/C (second compound 1 µM, first compound 0.000316 µM): 119% | viability, T/C (second compound 1 µM, first compound 0.001 µM): 119% | viability, T/C (second compound 1 µM, first compound 0.00316 µM): 112% | viability, T/C (second compound 1 µM, first compound 0.01 µM): 107% | viability, T/C [10]: 59% | viability, T/C [11]: 56.4% | viability, T/C (second compound 3.16 µM, first compound 0.000316 µM): 100% | viability, T/C (second compound 3.16 µM, first compound 0.001 µM): 102% | viability, T/C (second compound 3.16 µM, first compound 0.00316 µM): 105% | viability, T/C (second compound 3.16 µM, first compound 0.01 µM): 93.9% | viability, T/C [12]: 52.9% | viability, T/C [13]: 55.4% | viability, T/C (second compound 10 µM, first compound 0.000316 µM): 99.9% | viability, T/C (second compound 10 µM, first compound 0.001 µM): 103% | viability, T/C (second compound 10 µM, first compound 0.00316 µM): 100% | viability, T/C (second compound 10 µM, first compound 0.01 µM): 87.4% | viability, T/C [14]: 54.9% | viability, T/C [15]: 62.8%

Nc1ncn(C2CC(O)C(CO)S2)c(=O)n1 (stereo unspecified) + Cc1ccccc1N=Nc1ccc(NC(=O)c2ccnn2C)c(C)c1
IC50 [1]: > 300 nM | IC50 [2]: > 300 nM | IC50 [3]: > 300 nM | IC50 [4]: > 300 nM | IC50 [5]: > 300 nM | viability, T/C [16]: 105% | viability, T/C [17]: 108% | viability, T/C [18]: 105% | viability, T/C [19]: 101% | viability, T/C [20]: 87.4% | viability, T/C [21]: 79% | viability, T/C [22]: 113% | viability, T/C [23]: 109% | viability, T/C [24]: 112% | viability, T/C [25]: 106% | viability, T/C [26]: 86.5% | viability, T/C [27]: 77.8% | viability, T/C [28]: 114% | viability, T/C [29]: 115% | viability, T/C [30]: 113% | viability, T/C [31]: 108% | viability, T/C [32]: 95% | viability, T/C [33]: 82.5% | viability, T/C [34]: 112% | viability, T/C [35]: 112% | viability, T/C [36]: 114% | viability, T/C [37]: 110% | viability, T/C [38]: 95.6% | viability, T/C [39]: 80% | viability, T/C [40]: 107% | viability, T/C [41]: 111% | viability, T/C [42]: 108% | viability, T/C [43]: 108% | viability, T/C [44]: 89.2% | viability, T/C [45]: 78.8%

CC(C)CC(NC(=O)C(Cc1ccccc1)NC(=O)c1cnccn1)B(O)O (stereo unspecified)
viability, T/C (compound 0.000949 µM): 99.2% and 101% and 95.8% | viability, T/C (compound 0.003 µM): 99.8% and 102% and 100% | viability, T/C (compound 0.00949 µM): 100% and 96.3% and 85.5% | viability, T/C (compound 0.03 µM): 78.9% and 69.3% and 39% | viability, T/C (compound 0.0949 µM): 36% and 27.6% and 18% | viability, T/C (compound 0.3 µM): 24.7% and 18.1% and 11.4% | IC50 (curve of compound): 64.9 nM and 51 nM and 23.1 nM

CC[C@@]1(O)C(=O)OCc2c1cc1n(c2=O)Cc2cc3c(CN(C)C)c(O)ccc3nc2-1
viability, T/C (compound 0.000316 µM): 102% and 99.2% and 104% | viability, T/C (compound 0.001 µM): 101% and 98.1% and 106% | viability, T/C (compound 0.00316 µM): 97.5% and 89.9% and 98.5% | viability, T/C (compound 0.01 µM): 88% and 79.8% and 89.2% | viability, T/C (compound 0.0316 µM): 57% and 37.1% and 61.3% | viability, T/C (compound 0.1 µM): 50.6% and 40.1% and 46.5% | IC50 (curve of compound): > 100 nM and 23 nM and 75.9 nM

Nc1ncn(C2CC(O)C(CO)S2)c(=O)n1 (stereo unspecified) + Cc1cncc(-c2nc(NCCc3c[nH]c4ccccc34)c3ncn(C(C)C)c3n2)c1
IC50 [1]: > 300 nM | IC50 [2]: > 300 nM | IC50 [3]: > 300 nM | IC50 [4]: > 300 nM | IC50 [5]: < 0.949 nM | viability, T/C [16]: 99.8% | viability, T/C [17]: 101% | viability, T/C [18]: 102% | viability, T/C [19]: 98.4% | viability, T/C [20]: 85.9% | viability, T/C [21]: 80.6% | viability, T/C [22]: 99.1% | viability, T/C [23]: 101% | viability, T/C [24]: 96.8% | viability, T/C [25]: 93.1% | viability, T/C [26]: 85.5% | viability, T/C [27]: 78.2% | viability, T/C [28]: 87.8% | viability, T/C [29]: 88.7% | viability, T/C [30]: 89.7% | viability, T/C [31]: 79.7% | viability, T/C [32]: 75.4% | viability, T/C [33]: 70.9% | viability, T/C [34]: 75.4% | viability, T/C [35]: 76.3% | viability, T/C [36]: 75.5% | viability, T/C [37]: 79.6% | viability, T/C [38]: 63.2% | viability, T/C [39]: 62.7% | viability, T/C [40]: 18.3% | viability, T/C [41]: 17.9% | viability, T/C [42]: 18% | viability, T/C [43]: 15.2% | viability, T/C [44]: 14.3% | viability, T/C [45]: 15.1%

CC1COCCN1c1cc(C2(S(C)(=N)=O)CC2)nc(-c2ccnc3[nH]ccc23)n1 (stereo unspecified) + Cc1cncc(-c2nc(NCCc3c[nH]c4ccccc34)c3ncn(C(C)C)c3n2)c1
IC50 [1]: 9780 nM | IC50 [2]: > 10000 nM | IC50 [3]: 9580 nM | IC50 [4]: 5840 nM | IC50 [5]: < 31.6 nM | viability, T/C [6]: 99.4% | viability, T/C [7]: 102% | viability, T/C (second compound 0.1 µM, first compound 0.316 µM): 106% | viability, T/C (second compound 0.1 µM, first compound 1 µM): 101% | viability, T/C (second compound 0.1 µM, first compound 3.16 µM): 92% | viability, T/C (second compound 0.1 µM, first compound 10 µM): 49.1% | viability, T/C [8]: 99.6% | viability, T/C [9]: 98.4% | viability, T/C (second compound 0.316 µM, first compound 0.316 µM): 99.3% | viability, T/C (second compound 0.316 µM, first compound 1 µM): 103% | viability, T/C (second compound 0.316 µM, first compound 3.16 µM): 90% | viability, T/C (second compound 0.316 µM, first compound 10 µM): 51.6% | viability, T/C [10]: 92% | viability, T/C [11]: 95.6% | viability, T/C (second compound 1 µM, first compound 0.316 µM): 94.9% | viability, T/C (second compound 1 µM, first compound 1 µM): 96.4% | viability, T/C (second compound 1 µM, first compound 3.16 µM): 86% | viability, T/C (second compound 1 µM, first compound 10 µM): 48.5% | viability, T/C [12]: 74.5% | viability, T/C [13]: 79.2% | viability, T/C (second compound 3.16 µM, first compound 0.316 µM): 80.5% | viability, T/C (second compound 3.16 µM, first compound 1 µM): 82.4% | viability, T/C (second compound 3.16 µM, first compound 3.16 µM): 62.6% | viability, T/C (second compound 3.16 µM, first compound 10 µM): 38.9% | viability, T/C [14]: 19.6% | viability, T/C [15]: 22.8% | viability, T/C (second compound 10 µM, first compound 0.316 µM): 22.9% | viability, T/C (second compound 10 µM, first compound 1 µM): 18.6% | viability, T/C (second compound 10 µM, first compound 3.16 µM): 12.7% | viability, T/C (second compound 10 µM, first compound 10 µM): 6.44%

Nc1ccn(C2OC(CO)C(O)C2(F)F)c(=O)n1 (stereo unspecified)
viability, T/C (compound 0.0316 µM): 32.6% and 27.9% and 33.8% | viability, T/C (compound 0.1 µM): 30.9% and 25.9% and 30.5% | viability, T/C (compound 0.316 µM): 31.4% and 27.5% and 30.8% | viability, T/C (compound 1 µM): 31.7% and 27.9% and 31.9% | viability, T/C (compound 3.16 µM): 32.3% and 29.7% and 33.2% | viability, T/C (compound 10 µM): 31.7% and 27.8% and 29.7% | IC50 (curve of compound): < 31.6 nM
